# Assay results reported in patent US20210236678A1, “HOUSEHOLD PRODUCT DELIVERING WARMING AND/OR TINGLING SENSATIONS” (TAKASAGO INTERNATIONAL CORPORATION, priority 2016, published 2021).
# How the values were obtained:
# [1] = system: warming perception in the nose; experiment: Perception test for warming agents (panel smells samples; rating and ranking); format: in vivo; conditions: panel of 20 subjects; for Nemenyi multiple comparison test of warming ranking vs reference capsaicin / Mean rank (less warming = rank 1, more warming = rank 4): 1% in TEC; for Mean rank (less warming = rank 1, more warming = rank 4) / warming perception in the nose (rating), compared to the reference capsaicin: smelled; for warming perception in the nose (rating), compared to the reference capsaicin: 1% in Triethyl Citrate (TEC), scale 0 to 100, ANOVA and Student's t-test
# human TRPV1 = biological target: T1, human TRPV1 (Homo sapiens, UniProt Q8NER1); experiment: Screening on receptors TRPV1 (fluorescence imaging, CHO-K1 cells); format: cell-based; conditions: for agonist activity on TRPV1 compared to capsaicin (reference): CHO-K1 cells with human TRPV1
# T1 construct: expressed in transfected cells; host or cells: CHO-K1
# [2] = system: tingling sensation in the nose; conditions: 3% in Triethyl Citrate (TEC); panel of 80 subjects; scale 0 to +100
# Procedure: Comparison of tingling effect between isopulegol and menthoxypropanediol
# A panel of 80 subjects was selected to take part in a comparative test between isopulegol (available as Coolact (registered trademark) P) and menthoxypropanediol (CAS 87061-04-9, available as Coolact (registered trademark) 10).
# The samples of isopulegol and menthoxypropanediol were prepared by dilution to 3% in Triethyl Citrate (TEC).
# The subjects had to score whether they perceived a tingling sensation in the nose, on a scale of 0 (no sensation) to +100 (extremely tingling).
# human TRPA1 = biological target: T2, human TRPA1 (Homo sapiens, UniProt O75762); experiment: Screening on receptors TRPA1 (Fluo-8 calcium fluorescence, FLIPR, HEK-293 cells); format: cell-based; conditions: for EC50: HEK-293 cells stably transfected with human TRPA1, agonist, normalised to spilanthol EC100, elemi oil molarity assumes molecular weight of elemol; for agonist activity on TRPA1 compared to spilanthol (reference): HEK-293 cells with human TRPA1
# T2 construct: expressed in transfected cells; host or cells: HEK-293
# Procedure: The following are the test protocols used in determining whether fragrance ingredients show a response on the TRPA1 and TRPV1 receptors which are associated with tingling and warming sensations respectively. In all cases, the reaction is measured by fluorescence imaging using high throughput screening equipment.
# Method for Screening on Receptors TRPA1:
# HEK-293 (Human Embryonic Kidney) cells stably transfected with human TRPA1 were grown in a culture medium of EMEM (medium Essential Medium Eagle with Earl's salts balanced salt solution (Lonza catalogue No BE12-125F), 5 mL of 200 mM Ultraglutamine 1 (Lonza Catalogue No BE17-605E/U1), 5 mL of 100× Penicillin/Streptomycin (Lonza Catalogue No DE17-602E) 50 mL of Fetal bovine serum (Euroclone Cat No ECS0180L) 2 mL of 100 mg/mL Genticin sulphate (G418 sulphate InvivoGen CatAnt-gn-5).
# 10,000 cells/well were seeded in a 384 MTP in complete medium. Then, after 24 hours, the culture medium was manually removed. The cells were loaded with 20 μL/well of 0.5× Fluo-8 NW dye in standard Tyrode's buffer (Screen Quest™ Fluo-8 No wash Calcium assay kit supplied by AAT Bioquest catalogue No 26316). The plate was incubated for 1 hour at room temperature in the dark. 10 μL/well of test chemaesthetic agents were injected and controlled with the FLIPR^TETRA (Molecular Devices). The emitted fluorescence signal at 520 nm was recorded for 3 minutes. The compound multiwall plate contained the samples at 8 different doses in quadruplicate data points. Dose response of the samples were performed starting from 100 mM concentration in 100% DMSO with a serial dilution of 1:2 and then diluted in assay buffer at the final concentration of 100 μM, 50 μM, 25 μM, 12.5 μM, 6 μM, 3 μM, 1.5 μM, and 0.7 μM.
# In the compound plate were also present a dose response of the reference agonist at 8 concentrations and in duplicate. Spilanthol was the reference agonist for TRPA1 in this study. These reference controls dosed as 16 wells (duplicates for each concentration) of reference agonist at ECioo corresponded to the MAX signal response (100% activity).
# There were also 16 wells of blanks, i.e. assay buffers without either a test sample or reference compound which corresponded to the MIN signal response (0% activity). MAX and MIN controls were used for data analysis (RZ' calculation) and normalization of compound activity.
# For data analysis the response value was calculated as the maximum signal of the kinetic trace after the injection minus the median of the points before injection and multiplied by the normalization factor (NF). The normalisation factor was the baseline mean of all wells in the plate divided by the baseline of a specific well.
# To calculate the % of activity of the sample the response value was normalized versus MAX signal controls and MIN Signal controls to obtain the activity % according to the following formula: […]
# The normalized data in percent activity were then used to perform curve fitting and EC50 calculation corresponding to the concentration that gave 50% of activation of the receptor (within a curve fitting program within the data analysis software).
# [3] = system: tingling perception in the nose; experiment: Perception test for tingling agents (panel smells samples; rating and ranking); format: in vivo; conditions: panel of 20 subjects, smelled
# Procedure: The reference spilanthol is contained in jambu and known for its tingling effect on the skin/the tongue (U.S. Pat. No. 9,890,567; J. Paulraj et al., Advances in Pharmacological Sciences, Vol. 2013, Article ID 510298, 22 pages). The samples were prepared as solutions of the pure raw materials at 1% in Triethyl Citrate (TEC), and portions decanted into small jars for testing. In a first part of the evaluation, the subjects of the panel smell the samples one by one and rate them on the following scale: tingling perception in the nose: 0 (not at all) to 100 (very strong sensation). In a second part of the evaluation, the subjects of the panel rank the […] agents from the less tingling agent (rank 1) to the more tingling agents (rank 4). The mean values obtain for the ranking where as follows: […]
# T1 sequence (Q8NER1 whole entry): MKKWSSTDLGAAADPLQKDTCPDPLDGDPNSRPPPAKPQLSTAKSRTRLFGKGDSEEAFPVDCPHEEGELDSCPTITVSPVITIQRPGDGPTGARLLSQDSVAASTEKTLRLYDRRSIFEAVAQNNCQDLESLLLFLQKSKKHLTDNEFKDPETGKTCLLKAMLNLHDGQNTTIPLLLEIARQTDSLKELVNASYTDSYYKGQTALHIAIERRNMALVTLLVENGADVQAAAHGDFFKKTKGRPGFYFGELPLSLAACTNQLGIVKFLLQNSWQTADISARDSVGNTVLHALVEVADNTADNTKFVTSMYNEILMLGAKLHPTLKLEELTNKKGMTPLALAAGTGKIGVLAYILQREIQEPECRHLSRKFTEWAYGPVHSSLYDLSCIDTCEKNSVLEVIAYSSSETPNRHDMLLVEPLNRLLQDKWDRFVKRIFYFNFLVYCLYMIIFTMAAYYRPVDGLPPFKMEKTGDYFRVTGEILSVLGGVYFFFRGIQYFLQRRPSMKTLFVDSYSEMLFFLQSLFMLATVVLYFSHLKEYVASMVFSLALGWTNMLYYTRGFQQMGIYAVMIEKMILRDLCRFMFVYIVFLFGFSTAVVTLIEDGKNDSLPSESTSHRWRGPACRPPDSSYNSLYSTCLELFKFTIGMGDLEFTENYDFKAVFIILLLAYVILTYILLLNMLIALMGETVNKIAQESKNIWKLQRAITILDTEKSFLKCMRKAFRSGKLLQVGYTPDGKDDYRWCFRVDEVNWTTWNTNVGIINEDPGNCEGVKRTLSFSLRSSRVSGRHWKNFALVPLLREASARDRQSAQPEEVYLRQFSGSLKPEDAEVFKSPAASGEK
# T2 sequence (O75762 whole entry): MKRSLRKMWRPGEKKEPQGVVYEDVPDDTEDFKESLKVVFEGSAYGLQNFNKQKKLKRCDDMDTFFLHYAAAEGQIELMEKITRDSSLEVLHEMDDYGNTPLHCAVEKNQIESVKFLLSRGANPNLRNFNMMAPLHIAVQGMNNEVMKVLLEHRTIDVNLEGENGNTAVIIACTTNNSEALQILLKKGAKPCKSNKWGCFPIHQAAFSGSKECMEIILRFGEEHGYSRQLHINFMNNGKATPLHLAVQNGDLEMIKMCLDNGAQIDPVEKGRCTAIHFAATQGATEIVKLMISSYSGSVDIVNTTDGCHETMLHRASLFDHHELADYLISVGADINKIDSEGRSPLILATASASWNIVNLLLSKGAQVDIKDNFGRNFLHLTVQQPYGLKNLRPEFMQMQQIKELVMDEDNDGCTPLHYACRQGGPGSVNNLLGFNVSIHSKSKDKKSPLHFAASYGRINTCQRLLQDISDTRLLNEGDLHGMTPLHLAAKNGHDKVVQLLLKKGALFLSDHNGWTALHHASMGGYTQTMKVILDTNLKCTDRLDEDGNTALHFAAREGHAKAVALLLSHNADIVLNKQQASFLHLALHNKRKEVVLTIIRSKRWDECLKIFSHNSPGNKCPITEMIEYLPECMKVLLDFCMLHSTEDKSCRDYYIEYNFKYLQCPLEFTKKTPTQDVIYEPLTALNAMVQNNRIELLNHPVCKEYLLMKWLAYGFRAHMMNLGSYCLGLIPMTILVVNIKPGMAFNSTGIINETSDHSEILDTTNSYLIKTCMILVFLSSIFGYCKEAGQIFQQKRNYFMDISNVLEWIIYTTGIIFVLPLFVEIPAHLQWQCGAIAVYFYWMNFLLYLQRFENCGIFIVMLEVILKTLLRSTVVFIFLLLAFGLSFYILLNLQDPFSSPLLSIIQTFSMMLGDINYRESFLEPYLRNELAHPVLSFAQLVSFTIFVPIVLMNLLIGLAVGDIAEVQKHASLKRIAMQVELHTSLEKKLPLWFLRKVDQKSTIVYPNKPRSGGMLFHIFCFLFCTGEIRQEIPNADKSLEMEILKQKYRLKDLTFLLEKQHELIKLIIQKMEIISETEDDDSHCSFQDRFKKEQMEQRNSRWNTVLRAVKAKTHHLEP
Structure (SMILES),Nemenyi multiple comparison test of warming ranking vs reference capsaicin [1],"Mean rank (less warming = rank 1, more warming = rank 4) [1]","warming perception in the nose (rating), compared to the reference capsaicin [1]",agonist activity on TRPV1 compared to capsaicin (reference) (human TRPV1),"tingling sensation in the nose, isopulegol compared with menthoxypropanediol [2]",EC50 (human TRPA1) [µM],agonist activity on TRPA1 compared to spilanthol (reference) (human TRPA1),further results
CCOCc1ccc(O)c(OC)c1 [vanillyl ethyl ether],significantly more warming,2.450,improved warming perception,weaker agonists for TRPV1 than capsaicin,–,–,–,–
C=C(C)[C@@H]1CC[C@@H](C)C[C@H]1O [isopulegol],–,–,–,–,improved tingling perception,57,comparable agonists for TRPA1,–
C/C=C/C=C\CC/C=C/C(=O)NCC(C)C [spilanthol],–,–,–,–,–,35.5,–,"Mean rank (less tingling = rank 1, more tingling = rank 4) ([3]; 1% in TEC): 1.150; tingling perception in the nose (rating), compared to the reference spilanthol ([3]; 1% in Triethyl Citrate (TEC), scale 0 to 100, ANOVA and Student's t-test): little effect at all"
"COc1cc(CNC(=O)CCCC/C=C/C(C)C)ccc1O [capsaicin, reference compound]",–,1.650,–,–,–,–,–,–
CCCCOCc1ccc(O)c(OC)c1 [vanillyl butyl ether],significantly more warming,2.925,improved warming perception,weaker agonists for TRPV1 than capsaicin,–,–,–,EC50 (human TRPV1): 7.58 µM
CC(C)[C@@H]1CC[C@@H](C)C[C@H]1OCC(O)CO (stereo partly shown) [menthoxypropanediol],–,–,–,–,lower tingling sensation,200,comparable agonists for TRPA1,–
